Reference: PubChem BioAssay (NCI)
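Briefly, cells in 96-well plates were exposed to five compound concentrations for 48 h, and endpoints were estimated by linear interpolation. At the GI50, growth is halved. TGI marks complete inhibition of growth.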

Experiments:
Test in all cases: NCI tumour cell line growth inhibition, 48 h
A498 renal = tested on: A498 renal
A549 NSCLC = tested on: A549 NSCLC
ACHN renal = tested on: ACHN renal
BT-549 breast = tested on: BT-549 breast
CAKI-1 renal = tested on: CAKI-1 renal
CCRF-CEM leukemia = tested on: CCRF-CEM leukemia
COLO 205 colon = tested on: COLO 205 colon
DU-145 prostate = tested on: DU-145 prostate
EKVX NSCLC = tested on: EKVX NSCLC
HCC-2998 colon = tested on: HCC-2998 colon
HCT-116 colon = tested on: HCT-116 colon
HCT-15 colon = tested on: HCT-15 colon
HL-60(TB) leukemia = tested on: HL-60(TB) leukemia
HOP-62 NSCLC = tested on: HOP-62 NSCLC
HOP-92 NSCLC = tested on: HOP-92 NSCLC
HS 578T breast = tested on: HS 578T breast
IGROV1 ovarian = tested on: IGROV1 ovarian
K-562 leukemia = tested on: K-562 leukemia
KM12 colon = tested on: KM12 colon
LOX IMVI melanoma = tested on: LOX IMVI melanoma
M14 melanoma = tested on: M14 melanoma
MALME-3M melanoma = tested on: MALME-3M melanoma
MCF7 breast = tested on: MCF7 breast
MDA-MB-231 breast = tested on: MDA-MB-231 breast
MDA-MB-435 = tested on: MDA-MB-435
MDA-MB-468 breast = tested on: MDA-MB-468 breast
MOLT-4 leukemia = tested on: MOLT-4 leukemia
NCI-H226 lung = tested on: NCI-H226 lung
NCI-H23 lung = tested on: NCI-H23 lung
NCI-H460 lung = tested on: NCI-H460 lung
NCI-H522 lung = tested on: NCI-H522 lung
NCI/ADR-RES ovarian = tested on: NCI/ADR-RES ovarian
OVCAR-3 ovarian = tested on: OVCAR-3 ovarian
OVCAR-4 ovarian = tested on: OVCAR-4 ovarian
OVCAR-5 ovarian = tested on: OVCAR-5 ovarian
OVCAR-8 ovarian = tested on: OVCAR-8 ovarian
PC-3 prostate = tested on: PC-3 prostate
RPMI-8226 leukemia = tested on: RPMI-8226 leukemia
RXF 393 renal = tested on: RXF 393 renal
SF-268 CNS = tested on: SF-268 CNS
SF-295 CNS = tested on: SF-295 CNS
SF-539 CNS = tested on: SF-539 CNS
SK-MEL-2 melanoma = tested on: SK-MEL-2 melanoma
SK-MEL-28 melanoma = tested on: SK-MEL-28 melanoma
SK-MEL-5 melanoma = tested on: SK-MEL-5 melanoma
SK-OV-3 ovarian = tested on: SK-OV-3 ovarian
SN12C renal = tested on: SN12C renal
SNB-19 CNS = tested on: SNB-19 CNS
SNB-75 CNS = tested on: SNB-75 CNS
SR leukemia = tested on: SR leukemia
SW-620 colon = tested on: SW-620 colon
T-47D breast = tested on: T-47D breast
TK-10 renal = tested on: TK-10 renal
U251 CNS = tested on: U251 CNS
UACC-257 melanoma = tested on: UACC-257 melanoma
UACC-62 melanoma = tested on: UACC-62 melanoma
UO-31 renal = tested on: UO-31 renal

For `COc1cccc2nc(Nc3cccc(NC(=O)c4ccc(CN5CCN(C)CC5)c(C(F)(F)F)c4)c3)ccc12`, the GI50 (A498 renal) was 2 µM, the TGI (A498 renal) was 4.98 µM and the GI50 (A549 NSCLC) was 2.44 µM. The TGI (A549 NSCLC) was 7.8 µM, the GI50 (ACHN renal) was 2.05 µM and the TGI (ACHN renal) was 4.4 µM. The GI50 (BT-549 breast) was 7.01 µM, the TGI (BT-549 breast) was 19.2 µM and the GI50 (CAKI-1 renal) was 1.81 µM. For the same compound, the TGI (CAKI-1 renal) was 4.13 µM, the GI50 (CCRF-CEM leukemia) was 2.1 µM and the TGI (CCRF-CEM leukemia) was 6.43 µM. It also gave a GI50 (COLO 205 colon) of 1.79 µM, a TGI (COLO 205 colon) of 3.38 µM and a GI50 (DU-145 prostate) of 1.98 µM. It also gave a TGI (DU-145 prostate) of 4.42 µM, a GI50 (EKVX NSCLC) of 2.1 µM and a TGI (EKVX NSCLC) of 4.71 µM. The GI50 (HCC-2998 colon) was 1.99 µM, the TGI (HCC-2998 colon) was 3.45 µM and the GI50 (HCT-116 colon) was 1.82 µM. It also gave a TGI (HCT-116 colon) of 3.57 µM, a GI50 (HCT-15 colon) of 1.78 µM and a TGI (HCT-15 colon) of 3.56 µM. For the same compound, the GI50 (HL-60(TB) leukemia) was 1.22 µM, the TGI (HL-60(TB) leukemia) was 4.09 µM and the GI50 (HOP-62 NSCLC) was 1.56 µM. For the same compound, the TGI (HOP-62 NSCLC) was 3.11 µM, the GI50 (HOP-92 NSCLC) was 1.5 µM and the TGI (HOP-92 NSCLC) was 3.86 µM. The GI50 (HS 578T breast) was 1.84 µM, the TGI (HS 578T breast) was 4.57 µM and the GI50 (IGROV1 ovarian) was 2.25 µM. For the same compound, the TGI (IGROV1 ovarian) was 4.82 µM, the GI50 (K-562 leukemia) was 2.7 µM and the TGI (K-562 leukemia) was greater than 100 µM. The GI50 (KM12 colon) was 2.13 µM, the TGI (KM12 colon) was 4.59 µM and the GI50 (LOX IMVI melanoma) was 1.74 µM. It also gave a TGI (LOX IMVI melanoma) of 3.26 µM, a GI50 (M14 melanoma) of 1.76 µM and a TGI (M14 melanoma) of 3.63 µM. It also gave a GI50 (MALME-3M melanoma) of 1.65 µM, a TGI (MALME-3M melanoma) of 3.08 µM and a GI50 (MCF7 breast) of 1.57 µM. For the same compound, the TGI (MCF7 breast) was 3.2 µM, the GI50 (MDA-MB-231 breast) was 1.77 µM and the TGI (MDA-MB-231 breast) was 3.39 µM. The GI50 (MDA-MB-435) was 1.68 µM, the TGI (MDA-MB-435) was 3.21 µM and the GI50 (MDA-MB-468 breast) was 1.92 µM. It also gave a TGI (MDA-MB-468 breast) of 3.89 µM, a GI50 (MOLT-4 leukemia) of 1.45 µM and a TGI (MOLT-4 leukemia) of 7.59 µM. It also gave a GI50 (NCI-H226 lung) of 4.63 µM, a TGI (NCI-H226 lung) of 15.8 µM and a GI50 (NCI-H23 lung) of 1.91 µM. The TGI (NCI-H23 lung) was 3.73 µM, the GI50 (NCI-H460 lung) was 1.71 µM and the TGI (NCI-H460 lung) was 3.19 µM. For the same compound, the GI50 (NCI-H522 lung) was 1.79 µM, the TGI (NCI-H522 lung) was 3.65 µM and the GI50 (NCI/ADR-RES ovarian) was 2.28 µM. The TGI (NCI/ADR-RES ovarian) was 5.95 µM, the GI50 (OVCAR-3 ovarian) was 2.15 µM and the TGI (OVCAR-3 ovarian) was 5.17 µM. The GI50 (OVCAR-4 ovarian) was 2.21 µM, the TGI (OVCAR-4 ovarian) was 5.94 µM and the GI50 (OVCAR-5 ovarian) was 1.84 µM. For the same compound, the TGI (OVCAR-5 ovarian) was 3.71 µM, the GI50 (OVCAR-8 ovarian) was 3.09 µM and the TGI (OVCAR-8 ovarian) was 10.7 µM. The GI50 (PC-3 prostate) was 1.7 µM, the TGI (PC-3 prostate) was 4.46 µM and the GI50 (RPMI-8226 leukemia) was 2.78 µM. It also gave a TGI (RPMI-8226 leukemia) of 8.34 µM, a GI50 (RXF 393 renal) of 1.73 µM and a TGI (RXF 393 renal) of 3.96 µM. It also gave a GI50 (SF-268 CNS) of 1.69 µM, a TGI (SF-268 CNS) of 3.75 µM and a GI50 (SF-295 CNS) of 1.77 µM. The TGI (SF-295 CNS) was 3.31 µM, the GI50 (SF-539 CNS) was 1.64 µM and the TGI (SF-539 CNS) was 3.01 µM. For the same compound, the GI50 (SK-MEL-2 melanoma) was 3.52 µM, the TGI (SK-MEL-2 melanoma) was 12.2 µM and the GI50 (SK-MEL-28 melanoma) was 1.71 µM. It also gave a TGI (SK-MEL-28 melanoma) of 3.13 µM, a GI50 (SK-MEL-5 melanoma) of 1.62 µM and a TGI (SK-MEL-5 melanoma) of 3.02 µM. It also gave a GI50 (SK-OV-3 ovarian) of 9.22 µM, a TGI (SK-OV-3 ovarian) of 22.6 µM and a GI50 (SN12C renal) of 1.71 µM. It also gave a TGI (SN12C renal) of 3.3 µM, a GI50 (SNB-19 CNS) of 1.78 µM and a TGI (SNB-19 CNS) of 3.38 µM. It also gave a GI50 (SNB-75 CNS) of 1.6 µM, a TGI (SNB-75 CNS) of 4.37 µM and a GI50 (SR leukemia) of 1.85 µM. The TGI (SR leukemia) was 5.65 µM, the GI50 (SW-620 colon) was 1.73 µM and the TGI (SW-620 colon) was 3.27 µM. The GI50 (T-47D breast) was 2.28 µM, the TGI (T-47D breast) was 5.78 µM and the GI50 (TK-10 renal) was 2.15 µM. For the same compound, the TGI (TK-10 renal) was 4.65 µM, the GI50 (U251 CNS) was 1.92 µM and the TGI (U251 CNS) was 3.71 µM. It also gave a GI50 (UACC-257 melanoma) of 1.98 µM, a TGI (UACC-257 melanoma) of 3.85 µM and a GI50 (UACC-62 melanoma) of 1.75 µM. For the same compound, the TGI (UACC-62 melanoma) was 3.22 µM, the GI50 (UO-31 renal) was 1.64 µM and the TGI (UO-31 renal) was 3.18 µM.
